One series can be described thus: Solubility in PBS. The series is classed as physicochemical. On the procedure:
After ultracentrifugation of the PBS solution, the supernatant was analyzed by HPLC and compared to an HPLC injection 50 μM peptide DMSO solution. Solubility was determined by: [(Area of PBS peak)/(Area of DMSO peak)]*50 uM.

Series [1] concerns the target T1, full-length beta-Catenin (Uniprot ID P35222) (Homo sapiens, UniProt P35222).
T1 construct: 10 nM full-length beta-Catenin (Uniprot ID P35222)
T1 sequence (P35222 1-781): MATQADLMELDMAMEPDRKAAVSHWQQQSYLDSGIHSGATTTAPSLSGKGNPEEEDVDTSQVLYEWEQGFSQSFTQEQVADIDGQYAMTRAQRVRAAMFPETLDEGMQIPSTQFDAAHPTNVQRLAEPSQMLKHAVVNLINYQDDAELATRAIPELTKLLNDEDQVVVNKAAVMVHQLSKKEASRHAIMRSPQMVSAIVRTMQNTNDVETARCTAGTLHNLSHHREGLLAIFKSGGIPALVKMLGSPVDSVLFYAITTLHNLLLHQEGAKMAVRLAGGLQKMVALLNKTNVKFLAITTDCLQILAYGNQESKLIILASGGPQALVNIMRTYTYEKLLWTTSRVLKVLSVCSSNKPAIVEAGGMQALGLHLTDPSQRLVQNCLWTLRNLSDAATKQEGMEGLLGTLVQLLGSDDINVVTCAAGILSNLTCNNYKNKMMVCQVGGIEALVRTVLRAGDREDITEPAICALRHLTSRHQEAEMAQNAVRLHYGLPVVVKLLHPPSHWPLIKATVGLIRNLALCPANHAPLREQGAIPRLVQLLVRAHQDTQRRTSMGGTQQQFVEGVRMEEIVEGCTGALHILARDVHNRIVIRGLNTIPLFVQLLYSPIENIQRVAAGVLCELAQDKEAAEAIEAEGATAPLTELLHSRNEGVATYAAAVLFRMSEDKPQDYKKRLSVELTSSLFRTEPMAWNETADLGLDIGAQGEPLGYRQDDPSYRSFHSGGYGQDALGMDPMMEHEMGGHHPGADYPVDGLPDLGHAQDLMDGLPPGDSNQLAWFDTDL
In words: Fluorescence polarization IC50 (beta-catenin / 5FAM-TCF4 10-53 competition). The series is classed as binding. In general terms: Fluorescence polarisation rises when a labelled molecule tumbles more slowly, as on binding a larger partner.

The nature of another series: CHI Log D procedure. The series is classed as physicochemical. The conditions noted are these: for chromatographic logD: pH 7.4, CHI Log D.
Series [2] has as its target T2, beta-catenin/TCF4 engagement (Homo sapiens, UniProt P35222).
T2 construct: expressed in transfected cells; host or cells: HEK293
T2 sequence (P35222 1-781): T1 sequence (P35222 1-781)
Put plainly: Nano-BRET target engagement assay (B-cat-Halo & TCF4-Luc in HEK293 cells). The series is classed as cell-based. The settings on record: read-out: NanoBRET Abs IC50. (BRET reads energy transfer from a luciferase to a nearby fluorophore.)

[3] abbreviates: fluorescence polarization, beta-catenin, read-out: FP EC50.

What is called Solubility is the concentration that dissolves in the medium under given conditions. A lower Solubility goes with a poorly soluble substance. The term chromatographic logD denotes a lipophilicity value derived from retention on a column. Low readings indicate lower lipophilicity, high ones higher lipophilicity.

≈ marks a conversion by molar mass, not a printed value. Where two headings read alike, the source gives them in different places. Bounds are passed on as bounds.

With `CC(=O)N1CCC[C@]12CC=CCCCC1(CCCC=CCCCOC(=O)N3CC[C@@](C(=O)N[C@@H](Cc4ccccc4)C(=O)N[C@@H](Cc4csc5ccccc45)C(=O)N[C@@H](CCC(N)=O)C(N)=O)(C3)NC(=O)[C@H](CC(C)C)NC(=O)[C@H](Cc3ccccc3)NC(=O)[C@H](C)NC(=O)[C@H](C)NC(=O)[C@H]([C@@H](C)O)NC(=O)[C@H](CC(=O)O)NC1=O)NC(=O)[C@H](CC(C)(C)C)NC(=O)[C@H](CC(N)=O)NC2=O` (single isomer, unassigned) [I-1284, Ac-PL3-Asn-Npg-B5-Asp-Thr-Ala-Ala-Phe-Leu-PyrS2-Phe-BztA-Gln-NH2], the “Solubility” value in the series “Solubility in PBS” stood at 10 µM (≈ 19 µg/mL).
Same read-out and setting: the same measure for `CC(=O)N1CCC[C@]12CC=CCCCC1(CCCC=CCCCOC(=O)N3CC[C@@](C(=O)N[C@@H](Cc4ccccc4)C(=O)N[C@@H](Cc4csc5ccccc45)C(=O)N[C@@H](CCC(N)=O)C(N)=O)(C3)NC(=O)[C@H](CC(C)C)NC(=O)[C@H](Cc3ccccc3)NC(=O)[C@H](C)NC(=O)[C@H](C)NC(=O)[C@H]([C@@H](C)O)NC(=O)[C@H](CC(=O)O)NC1=O)NC(=O)[C@H](CC(C)(C)C)NC(=O)[C@H](CC(N)=O)NC2=O` (single isomer, unassigned) [I-1285, Ac-PL3-Asn-Npg-B5-Asp-Thr-Ala-Ala-Phe-Leu-PyrS2-Phe-BztA-Gln-NH2]: 10 µM (≈ 19 µg/mL).
Same read-out and setting: the same measure for `CC(=O)N1CCC[C@]12CC=CCCCC1(CCCC=CCCCOC(=O)N3CC[C@@](C(=O)N[C@@H](Cc4ccccc4)C(=O)N[C@@H](Cc4csc5ccccc45)C(=O)N[C@@H](CCC(N)=O)C(N)=O)(C3)NC(=O)[C@H](CC(C)C)NC(=O)[C@H](Cc3ccccc3)NC(=O)[C@H](C)NC(=O)[C@H](C)NC(=O)[C@H]([C@@H](C)O)NC(=O)[C@H](CC(=O)O)NC1=O)NC(=O)[C@H](C)NC(=O)[C@H](CC(N)=O)NC2=O` (single isomer, unassigned) [I-1286, Ac-PL3-Asn-Ala-B5-Asp-Thr-Ala-Ala-Phe-Leu-PyrS2-Phe-BztA-Gln-NH2]: 10 µM (≈ 18.4 µg/mL); for `CC(=O)N1CCC[C@]12CC=CCCCC1(CCCC=CCCCOC(=O)N3CC[C@@](C(=O)N[C@@H](Cc4ccccc4)C(=O)N[C@@H](Cc4csc5ccccc45)C(=O)N[C@@H](CCC(N)=O)C(N)=O)(C3)NC(=O)[C@H](CC(C)C)NC(=O)[C@H](Cc3ccccc3)NC(=O)[C@H](C)NC(=O)[C@H](C)NC(=O)[C@H]([C@@H](C)O)NC(=O)[C@H](CC(=O)O)NC1=O)NC(=O)[C@H](C)NC(=O)[C@H](CC(N)=O)NC2=O` (single isomer, unassigned) [I-1287, Ac-PL3-Asn-Ala-B5-Asp-Thr-Ala-Ala-Phe-Leu-PyrS2-Phe-BztA-Gln-NH2]: 10 µM (≈ 18.4 µg/mL).
Same read-out and setting: the result for `CC(=O)N1CCC[C@]12CC=CCCCC1(CCCC=CCCCOC(=O)N3CC[C@@](C(=O)N[C@@H](Cc4ccccc4)C(=O)N[C@@H](Cc4csc5ccccc45)C(=O)N[C@@H](CCC(N)=O)C(N)=O)(C3)NC(=O)[C@H](CC(C)C)NC(=O)[C@H](Cc3ccccc3)NC(=O)[C@H](C)NC(=O)[C@H](CCCCNC(C)C)NC(=O)[C@H]([C@@H](C)O)NC(=O)[C@H](CC(=O)O)NC1=O)NC(=O)[C@H](CC(C)(C)C)NC(=O)[C@H](CC(N)=O)NC2=O` (single isomer, unassigned) [I-1289, Ac-PL3-Asn-Npg-B5-Asp-Thr-iPrLys-Ala-Phe-Leu-PyrS2-Phe-BztA-Gln-NH2] reads 10 µM (≈ 20 µg/mL).
As to `CC(=O)N1CCC[C@]12CC=CCCCC1(CCCC=CCCCOC(=O)N3CC[C@@](C(=O)N[C@@H](Cc4ccccc4)C(=O)N[C@@H](Cc4ccc5ccccc5c4)C(=O)N[C@@H](CCC(N)=O)C(N)=O)(C3)NC(=O)[C@H](CC(C)C)NC(=O)[C@H](Cc3ccccc3)NC(=O)[C@H](C)NC(=O)[C@H](C)NC(=O)[C@H]([C@@H](C)O)NC(=O)[C@H](CC(=O)O)NC1=O)NC(=O)[C@H](CC(C)(C)C)NC(=O)[C@H](CC(N)=O)NC2=O` (single isomer, unassigned) [I-1291, Ac-PL3-Asn-Npg-B5-Asp-Thr-Ala-Ala-Phe-Leu-PyrS2-Phe-2NapA-Gln-NH2], in the series “Solubility in PBS”, the “Solubility” value was 10 µM (≈ 18.9 µg/mL).
For the compound `CC(=O)N1CCC[C@]12CC=CCCCC1(CCCC=CCCCOC(=O)N3CC[C@@](C(=O)N[C@@H](Cc4ccccc4)C(=O)N[C@@H](Cc4ccc5ccccc5c4)C(=O)N[C@@H](CCC(N)=O)C(N)=O)(C3)NC(=O)[C@H](CC(C)C)NC(=O)[C@H](Cc3ccccc3)NC(=O)[C@H](C)NC(=O)[C@H](C)NC(=O)[C@H]([C@@H](C)O)NC(=O)[C@H](CC(=O)O)NC1=O)NC(=O)[C@H](CC(C)(C)C)NC(=O)[C@H](CC(N)=O)NC2=O` (single isomer, unassigned) [I-1292, Ac-PL3-Asn-Npg-B5-Asp-Thr-Ala-Ala-Phe-Leu-PyrS2-Phe-2NapA-Gln-NH2], in “Solubility in PBS”, the “Solubility” value stood at 10 µM (≈ 18.9 µg/mL).
In the case of `CC(=O)N1CCC[C@]12CC=CCCCC1(CCCC=CCCCOC(=O)N3CC[C@@](C(=O)N[C@@H](Cc4ccccc4Cl)C(=O)N[C@@H](Cc4csc5ccccc45)C(=O)N[C@@H](C(N)=O)[C@H](C)O)(C3)NC(=O)[C@H](CO)NC(=O)[C@H](Cc3ccccc3)NC(=O)[C@H](C)NC(=O)[C@H](C)NC(=O)[C@H](CCC(=O)O)NC(=O)[C@H](CC(=O)O)NC1=O)NC(=O)[C@H](CC(C)(C)C)NC(=O)[C@H](CC(=O)O)NC2=O` (stereo partly drawn) [I-1036, Ac-PL3-Asp-Npg-B5-Asp-Glu-Ala-Ala-Phe-Ser-PyrS2-2C1F-BztA-dThr-NH2], the IC50 in series [1] (read-out: beta-Catenin FP IC50) is 29 nM; in series [2], 16.6 µM. The same compound gave a chromatographic logD in the series “CHI Log D procedure” of 2.46.
The corresponding values for `CC(=O)N1CCC[C@]12CC=CCCCC1(CCCC=CCCCOC(=O)N3CC[C@@](C(=O)N[C@@H](Cc4ccccc4Cl)C(=O)N[C@@H](Cc4csc5ccccc45)C(=O)N[C@@H](C(N)=O)[C@H](C)O)(C3)NC(=O)[C@H]([C@@H](C)O)NC(=O)[C@H](Cc3ccccc3)NC(=O)[C@H](C)NC(=O)[C@H](C)NC(=O)[C@H](CCC(=O)O)NC(=O)[C@H](CC(=O)O)NC1=O)NC(=O)[C@H](CC(C)(C)C)NC(=O)[C@H](CC(=O)O)NC2=O` (stereo partly drawn) [I-1037, Ac-PL3-Asp-Npg-B5-Asp-Glu-Ala-Ala-Phe-Thr-PyrS2-2C1F-BztA-dThr-NH2] are 30 nM, 4.4 µM and 2.52.
Take `CC(=O)N1CCC[C@]12CC=CCCCC1(CCCC=CCCCOC(=O)N3CC[C@@](C(=O)N[C@@H](Cc4ccccc4Cl)C(=O)N[C@@H](Cc4csc5ccccc45)C(=O)N[C@@H](CCC(N)=O)C(N)=O)(C3)NC(=O)[C@H](CC(C)C)NC(=O)[C@H](Cc3ccccc3)NC(=O)[C@H](C)NC(=O)[C@H](C)NC(=O)[C@H](CC(=O)O)NC(=O)[C@H](CC(=O)O)NC1=O)NC(=O)[C@H](CC(C)(C)C)NC(=O)[C@H](CC(=O)O)NC2=O` (stereo partly drawn) [I-1062, Ac-PL3-Asp-Npg-B5-Asp-Asp-Ala-Ala-Phe-Leu-PyrS2-2C1F-BztA-Gln-NH2]: the IC50 was 393 nM in series [1] (setting [3]), 11 nM in series [1] (read-out: beta-Catenin FP IC50) and 4.7 µM in series [2]. Further, the chromatographic logD in “CHI Log D procedure” turned out to be 1.9.
Turning to `CC(=O)N1CCC[C@]12CC=CCCCC1(CCCC=CCCCCCC[C@@](C)(C(=O)N[C@@H](Cc3ccccc3Cl)C(=O)N[C@@H](Cc3csc4ccccc34)C(=O)N[C@@H](CCC(N)=O)C(N)=O)NC(=O)[C@H]([C@@H](C)O)NC(=O)[C@H](Cc3ccccc3)NC(=O)[C@H](C)NC(=O)[C@H](C)NC(=O)[C@H](CC(=O)O)NC(=O)[C@H](CC(=O)O)NC1=O)NC(=O)[C@H](CC(C)(C)C)NC(=O)[C@H](CC(=O)O)NC2=O` (stereo partly drawn) [I-1086, Ac-PL3-Asp-Npg-B5-Asp-Asp-Ala-Ala-Phe-Thr-S8-2C1F-BztA-Gln-NH2], the IC50 in series [1] (setting [3]) amounted to 12 nM; in series [1] (read-out: beta-Catenin FP IC50), 12 nM; in series [2] it was 10.1 µM. Also, the “CHI Log D” value in “CHI Log D procedure” (pH 7.4) was 2.709.
As to `CC(=O)N1CCC[C@]12CC=CCCCC1(CCCC=CCCCOC(=O)N3CC[C@@](C(=O)N[C@@H](Cc4ccsc4)C(=O)N[C@@H](Cc4csc5ccccc45)C(=O)N[C@@H](CCC(N)=O)C(N)=O)(C3)NC(=O)[C@H](CC(N)=O)NC(=O)[C@H](Cc3ccccc3)NC(=O)[C@H](C)NC(=O)[C@H](C)NC(=O)[C@H](CN(CC(=O)O)CC(F)(F)F)NC(=O)[C@H](CC(=O)O)NC1=O)NC(=O)[C@H](CC(C)(C)C)NC(=O)C[C@H](CC(=O)O)NC2=O` (stereo partly drawn) [I-1161, Ac-PL3-RbGlu-Npg-B5-Asp-TfeGA-Ala-Ala-Phe-Asn-PyrS2-3Thi-BztA-Gln-NH2], the IC50 in series [1] (fluorescence polarization, read-out: beta-Catenin FP IC50) was 24 nM; in series [2] (absolute IC50), more than 20 µM. For the same compound, the chromatographic logD in the series “CHI Log D procedure” is 2.08.

(Values after patent US20240116985A1, “STAPLED PEPTIDES AND METHODS THEREOF” (priority 2020, published 2024).)
